Source: patent US20140249135A1, “PIM KINASE INHIBITORS AND METHODS OF THEIR USE” (NOVARTIS AG, priority 2007, published 2014)

How the values were obtained:
[1] = molecular target: Pim1 kinase (Homo sapiens, UniProt P11309); experiment: Pim1 ATP depletion assay; assay type: biochemical; conditions: Pim1 ATP depletion assay; read-out: IC50 (μM) PIM1;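 further: Luciferase-luciferin luminescence readout of residual ATP after PIM1 transfers phosphate to a peptide substrate, 40 µM ATP added, reaction run to roughly half ATP consumption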
Chain of Pim1 kinase (P11309 whole entry): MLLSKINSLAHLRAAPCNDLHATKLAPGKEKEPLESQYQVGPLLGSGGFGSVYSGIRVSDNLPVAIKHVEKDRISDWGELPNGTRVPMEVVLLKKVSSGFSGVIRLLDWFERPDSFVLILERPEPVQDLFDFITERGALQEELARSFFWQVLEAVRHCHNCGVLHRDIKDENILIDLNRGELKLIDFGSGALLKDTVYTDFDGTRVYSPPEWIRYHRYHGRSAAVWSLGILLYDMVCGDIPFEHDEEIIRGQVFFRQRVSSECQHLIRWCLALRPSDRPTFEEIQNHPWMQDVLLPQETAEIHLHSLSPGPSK

[2] = molecular target: Pim2 kinase (Homo sapiens, UniProt Q9P1W9); experiment: Pim2 ATP depletion assay; assay type: biochemical; conditions: read-out: IC50 (μM) PIM2;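 further: Luciferase-based luminescent readout of ATP remaining after PIM2 phosphorylates a BAD peptide, final 5 nM enzyme, 4 µM ATP, 10 µM peptide, 2.5% DMSO, run to roughly half ATP consumption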
Chain of Pim2 kinase (Q9P1W9 whole entry): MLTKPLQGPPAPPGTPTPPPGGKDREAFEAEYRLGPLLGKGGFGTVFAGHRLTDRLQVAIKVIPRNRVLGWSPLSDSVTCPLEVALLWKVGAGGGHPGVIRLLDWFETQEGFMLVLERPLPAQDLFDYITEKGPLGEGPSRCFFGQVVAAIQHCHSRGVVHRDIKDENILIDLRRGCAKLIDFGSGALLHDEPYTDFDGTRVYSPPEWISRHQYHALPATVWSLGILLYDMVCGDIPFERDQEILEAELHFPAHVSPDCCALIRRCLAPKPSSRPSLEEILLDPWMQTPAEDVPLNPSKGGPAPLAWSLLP

[3] = molecular target: Pim3 kinase (Homo sapiens, UniProt Q86V86); experiment: Pim3 ATP depletion assay; assay type: biochemical; conditions: read-out: IC50 (μM) PIM3
[4] = molecular target: T1, human full length PKCE enzyme (Homo sapiens, UniProt Q02156); experiment: In vitro PKCE assay; assay type: biochemical; conditions: 10 nM enzyme, 40 uM peptide substrate, 20 uM ATP, KinaseGlo Plus readout; read-out: PKCε IC50
T1 construct: human full length PKCE enzyme purchased from InVitrogen; purchased InVitrogen
T1 sequence (Q02156 1-737): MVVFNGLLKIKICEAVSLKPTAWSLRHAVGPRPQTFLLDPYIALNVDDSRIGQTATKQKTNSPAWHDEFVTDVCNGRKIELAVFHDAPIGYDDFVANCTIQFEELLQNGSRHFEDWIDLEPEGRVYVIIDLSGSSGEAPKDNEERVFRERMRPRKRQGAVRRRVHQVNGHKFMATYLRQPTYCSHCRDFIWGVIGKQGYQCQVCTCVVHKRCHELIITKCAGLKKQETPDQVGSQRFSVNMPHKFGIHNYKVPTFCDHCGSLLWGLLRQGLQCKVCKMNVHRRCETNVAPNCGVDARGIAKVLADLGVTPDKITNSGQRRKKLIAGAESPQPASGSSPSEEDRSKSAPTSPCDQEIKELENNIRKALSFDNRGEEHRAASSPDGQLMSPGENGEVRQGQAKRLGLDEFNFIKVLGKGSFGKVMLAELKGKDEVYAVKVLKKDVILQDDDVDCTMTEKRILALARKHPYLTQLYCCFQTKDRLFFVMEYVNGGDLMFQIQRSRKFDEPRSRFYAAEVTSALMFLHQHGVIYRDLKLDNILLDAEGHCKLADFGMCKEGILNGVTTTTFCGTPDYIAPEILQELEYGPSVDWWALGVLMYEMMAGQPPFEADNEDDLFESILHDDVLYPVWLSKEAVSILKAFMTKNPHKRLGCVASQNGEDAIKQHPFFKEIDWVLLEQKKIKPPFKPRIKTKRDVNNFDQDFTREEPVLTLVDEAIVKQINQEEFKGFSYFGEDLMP

[5] = molecular target: KDR kinase (Homo sapiens, UniProt P35968); experiment: KDR AlphaScreen assay; conditions: KDR IC50 (μM)
Chain of KDR kinase (P35968 20-1356): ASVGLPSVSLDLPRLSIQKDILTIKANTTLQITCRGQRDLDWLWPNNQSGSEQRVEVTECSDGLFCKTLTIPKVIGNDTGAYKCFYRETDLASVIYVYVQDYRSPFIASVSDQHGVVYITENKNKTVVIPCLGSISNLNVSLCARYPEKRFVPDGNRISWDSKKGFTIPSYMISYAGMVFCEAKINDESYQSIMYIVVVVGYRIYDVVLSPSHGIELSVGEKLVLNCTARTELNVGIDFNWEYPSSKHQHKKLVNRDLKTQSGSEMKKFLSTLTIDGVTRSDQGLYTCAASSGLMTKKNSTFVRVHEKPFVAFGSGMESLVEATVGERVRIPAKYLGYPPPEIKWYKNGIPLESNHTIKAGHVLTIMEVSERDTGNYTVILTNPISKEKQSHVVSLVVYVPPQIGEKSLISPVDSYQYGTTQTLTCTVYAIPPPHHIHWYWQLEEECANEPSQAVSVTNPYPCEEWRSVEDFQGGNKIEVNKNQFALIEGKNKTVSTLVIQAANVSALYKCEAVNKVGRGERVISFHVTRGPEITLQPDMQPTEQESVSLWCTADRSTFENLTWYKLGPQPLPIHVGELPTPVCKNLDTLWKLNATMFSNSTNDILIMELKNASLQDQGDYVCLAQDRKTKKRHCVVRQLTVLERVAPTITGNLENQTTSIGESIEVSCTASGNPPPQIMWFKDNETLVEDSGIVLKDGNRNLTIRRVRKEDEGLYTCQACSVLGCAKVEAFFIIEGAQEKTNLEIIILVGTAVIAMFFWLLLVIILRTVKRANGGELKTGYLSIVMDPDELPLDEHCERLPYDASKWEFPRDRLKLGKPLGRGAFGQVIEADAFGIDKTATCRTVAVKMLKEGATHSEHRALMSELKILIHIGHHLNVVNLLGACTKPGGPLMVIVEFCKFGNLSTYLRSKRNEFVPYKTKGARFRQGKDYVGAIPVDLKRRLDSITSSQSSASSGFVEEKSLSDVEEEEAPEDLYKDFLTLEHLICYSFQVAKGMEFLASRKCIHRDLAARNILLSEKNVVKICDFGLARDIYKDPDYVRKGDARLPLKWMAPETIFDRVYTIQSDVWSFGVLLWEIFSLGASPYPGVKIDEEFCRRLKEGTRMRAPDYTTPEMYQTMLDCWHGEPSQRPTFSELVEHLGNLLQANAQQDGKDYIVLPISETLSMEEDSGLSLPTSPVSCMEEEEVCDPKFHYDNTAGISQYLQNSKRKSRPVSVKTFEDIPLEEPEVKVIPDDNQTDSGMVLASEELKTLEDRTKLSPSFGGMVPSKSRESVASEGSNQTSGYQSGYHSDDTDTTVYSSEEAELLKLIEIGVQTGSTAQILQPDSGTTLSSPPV

COc1ccc(N2CCCC(N)C2)c(NC(=O)c2nccnc2N)c1 (stereo not shown) [Example 223, 3-amino-N-[2-(3-aminopiperidin-1-yl)-5-methoxyphenyl]pyrazine-2-carboxamide] was tested, and the IC50 [1] was under 1 µM, the IC50 [2] was 1 to 10 µM and the IC50 [3] was under 1 µM. The IC50 [4] was under 1000 nM and the IC50 [5] was over 25 µM.
In the case of Nc1nccnc1C(=O)Nc1cc(C(F)(F)F)ccc1N1CCNCC1 [Example 224, 3-amino-N-[2-piperazin-1-yl-5-(trifluoromethyl)phenyl]pyrazine-2-carboxamide], the IC50 [1] is reported as under 1 µM, the IC50 [2] is reported as over 25 µM and the IC50 [3] is reported as 1 to 10 µM. The IC50 [4] was 1000 to 10000 nM and the IC50 [5] was over 25 µM.
Nc1nccnc1C(=O)Nc1cc(C(F)(F)F)ccc1N1CCC(N)CC1 [Example 225, 3-amino-N-[2-(4-aminopiperidin-1-yl)-5-(trifluoromethyl)phenyl]-pyrazine-2-carboxamide] gave an IC50 [1] of under 1 µM, an IC50 [2] of 10 to 25 µM and an IC50 [3] of under 1 µM. For the same compound, the IC50 [4] was 1000 to 10000 nM and the IC50 [5] was over 25 µM.
For Nc1nccnc1C(=O)Nc1cc(C(F)(F)F)ccc1N1CCCC(N)C1 (stereo not shown) [Example 226, 3-amino-N-[2-(3-aminopiperidin-1-yl)-5-(trifluoromethyl)phenyl]-pyrazine-2-carboxamide], the IC50 [1] was under 1 µM, the IC50 [2] was 1 to 10 µM and the IC50 [3] was under 1 µM. The IC50 [4] was 1000 to 10000 nM and the IC50 [5] was over 25 µM.
Cc1ccc(NC(=O)c2nccnc2N)c(N2CCNCC2)c1 [Example 227, 3-amino-N-(4-methyl-2-piperazin-1-ylphenyl)pyrazine-2-carboxamide] showed an IC50 [1] of 1 to 10 µM, an IC50 [2] of over 25 µM and an IC50 [3] of 1 to 10 µM. For the same compound, the IC50 [4] was 1000 to 10000 nM and the IC50 [5] was over 25 µM.
In the case of Cc1ccc(NC(=O)c2nccnc2N)c(N2CCCC(N)C2)c1 (stereo not shown) [Example 229, 3-amino-N-[2-(3-aminopiperidin-1-yl)-4-methylphenyl]pyrazine-2-carboxamide], the IC50 [1] is reported as under 1 µM, the IC50 [2] is reported as 1 to 10 µM and the IC50 [3] is reported as under 1 µM. The IC50 [4] was 1000 to 10000 nM and the IC50 [5] was over 25 µM.
Compound N#Cc1ccc(N2CCCC(N)C2)c(NC(=O)c2nccnc2N)c1 (stereo not shown) [Example 230, 3-amino-N-[2-(3-aminopiperidin-1-yl)-5-cyanophenyl]pyrazine-2-carboxamide] has an IC50 [1] of under 1 µM, an IC50 [2] of under 1 µM and an IC50 [3] of under 1 µM. It also gave an IC50 [4] of under 1000 nM and an IC50 [5] of over 25 µM.
Nc1nccnc1C(=O)Nc1cc(C(=O)c2ccccc2)ccc1N1CCCC(N)C1 (stereo not shown) [Example 231, 3-amino-pyrazine-2-carboxylic acid [2-(3-amino-piperidin-1-yl)-5-benzoyl-phenyl]-amide] was tested, and the IC50 [1] was 1 to 10 µM, the IC50 [2] was over 25 µM and the IC50 [3] was 1 to 10 µM. It also gave an IC50 [4] of 10000 to 25000 nM and an IC50 [5] of 10 to 25 µM.
Nc1nccnc1C(=O)Nc1cc(C(=O)c2ccccc2)ccc1N1CCNCC1 [Example 232, 3-amino-pyrazine-2-carboxylic acid (5-benzoyl-2-piperazin-1-yl-phenyl)-amide] showed an IC50 [1] of 10 to 25 µM, an IC50 [2] of over 25 µM and an IC50 [3] of 10 to 25 µM. It also gave an IC50 [4] of 10000 to 25000 nM and an IC50 [5] of 10 to 25 µM.
For Nc1nccnc1C(=O)Nc1cc(C(=O)c2ccccc2)ccc1N1CCC(N)CC1 [Example 233, 3-amino-pyrazine-2-carboxylic acid [2-(4-amino-piperidin-1-yl)-5-benzoyl-phenyl]-amide], the IC50 [1] was 1 to 10 µM, the IC50 [2] was over 25 µM and the IC50 [3] was 1 to 10 µM. For the same compound, the IC50 [4] was 1000 to 10000 nM and the IC50 [5] was 1 to 10 µM.
With NCC1CCCN(c2cnc(=O)[nH]c2NC(=O)c2nc(Cl)c(N)nc2N)C1 (stereo not shown) [Example 236, 3,5-diamino-N-{5-[3-(amino-methyl)piperidin-1-yl]-2-oxo-2,3-dihydropyrimidin-4-yl}-6-chloropyrazine-2-carboxamide] the IC50 [1] was under 1 µM, the IC50 [2] was under 1 µM and the IC50 [3] was under 1 µM. The IC50 [4] was over 25000 nM and the IC50 [5] was 10 to 25 µM.
In the case of NCCC(=O)N1CCN(c2cnc(=O)[nH]c2NC(=O)c2nccnc2N)CC1 [Example 237, 3-amino-N-{5-[4-(3-amino-propanoyl)piperazin-1-yl]-2-oxo-2,3-dihydropyrimidin-4-yl}-pyrazine-2-carboxamide], the IC50 [1] is reported as under 1 µM, the IC50 [2] is reported as under 1 µM and the IC50 [3] is reported as under 1 µM. For the same compound, the IC50 [4] was 1000 to 10000 nM and the IC50 [5] was under 1 µM.
With NCCC(=O)N1CCN(c2cnc(=O)[nH]c2NC(=O)c2nc(Cl)c(N)nc2N)CC1 [Example 238, 3,5-diamino-6-chloro-pyrazine-2-carboxylic acid {5-[4-(3-amino-propionyl)-piperazin-1-yl]-2-oxo-2,3-dihydro-pyrimidin-4-yl}-amide] the IC50 [1] was under 1 µM, the IC50 [2] was under 1 µM and the IC50 [3] was under 1 µM. The IC50 [4] was over 25000 nM and the IC50 [5] was under 1 µM.
Nc1nccnc1C(=O)Nc1cc(C(=O)C2CC2)ccc1N1CCCC(N)C1 (stereo not shown) [Example 243, 3-amino-pyrazine-2-carboxylic acid [2-(3-amino-piperidin-1-yl)-5-cyclopropanecarbonyl-phenyl]-amide] showed an IC50 [1] of 1 to 10 µM, an IC50 [2] of 10 to 25 µM and an IC50 [3] of 1 to 10 µM. The IC50 [4] was 1000 to 10000 nM and the IC50 [5] was over 25 µM.
Work on Nc1nccnc1C(=O)Nc1cc(C(=O)C2CC2)ccc1N1CCC(N)CC1 [Example 244, 3-amino-pyrazine-2-carboxylic acid [2-(4-amino-piperidin-1-yl)-5-cyclopropanecarbonyl-phenyl]-amide] yielded an IC50 [1] of 1 to 10 µM, an IC50 [2] of 10 to 25 µM and an IC50 [3] of 1 to 10 µM. For the same compound, the IC50 [4] was 1000 to 10000 nM and the IC50 [5] was 10 to 25 µM.
Work on CC(=O)NC1CCCN(c2ccncc2NC(=O)c2nc(Br)cnc2N)C1 (stereo not shown) [Example 304, N-(4-(3-acetamidopiperidin-1-yl)pyridin-3-yl)-3-amino-6-bromopyrazine-2-carboxamide] yielded an IC50 [1] of under 1 µM, an IC50 [2] of over 25 µM and an IC50 [3] of 1 to 10 µM. For the same compound, the IC50 [4] was 1000 to 10000 nM and the IC50 [5] was under 1 µM.
Work on COc1cncc(-c2cnc(N)c(C(=O)Nc3cnccc3N3CCNCC3)n2)n1 [Example 360, 5-amino-6′-methoxy-[2,2′]bipyrazinyl-6-carboxylic acid (4-piperazin-1-yl-pyridin-3-yl)-amide] yielded an IC50 [1] of 1 to 10 µM, an IC50 [2] of over 25 µM and an IC50 [3] of 1 to 10 µM. For the same compound, the IC50 [4] was 1000 to 10000 nM and the IC50 [5] was under 1 µM.
NC(=O)c1cccc(-c2cnc(N)c(C(=O)Nc3cnccc3N3CCNCC3)n2)c1 [Example 361, 3-amino-6-(3-carbamoyl-phenyl)-pyrazine-2-carboxylic acid (4-piperazin-1-yl-pyridin-3-yl)-amide] gave an IC50 [1] of under 1 µM, an IC50 [2] of under 1 µM and an IC50 [3] of under 1 µM. It also gave an IC50 [4] of under 1000 nM and an IC50 [5] of under 1 µM.
COc1cncc(-c2cnc(N)c(C(=O)Nc3cnccc3N3CCC(N)CC3)n2)n1 [Example 366, 5-amino-6′-methoxy-[2,2′]bi-pyrazinyl-6-carboxylic acid (4-amino-3,4,5,6-tetrahydro-2H-[1,4′]bipyridinyl-3′-yl)-amide] was tested, and the IC50 [1] was under 1 µM, the IC50 [2] was 1 to 10 µM and the IC50 [3] was under 1 µM. The IC50 [4] was under 1000 nM and the IC50 [5] was under 1 µM.
Compound NC(=O)c1cccc(-c2cnc(N)c(C(=O)Nc3cnccc3N3CCCC(N)C3)n2)c1 (stereo not shown) [Example 369, 3-amino-6-(3-carbamoyl-phenyl)-pyrazine-2-carboxylic acid (3-amino-3,4,5,6-tetra-hydro-2H-[1,4′]bipyridinyl-3′-yl)-amide] has an IC50 [1] of under 1 µM, an IC50 [2] of under 1 µM and an IC50 [3] of under 1 µM. For the same compound, the IC50 [4] was under 1000 nM and the IC50 [5] was under 1 µM.
Compound Nc1ncc(-c2ccccc2F)nc1C(=O)Nc1ccccc1N1CCC(N)CC1 [Example 377, 3-amino-6-(2-fluoro-phenyl)-pyrazine-2-carboxylic acid [2-(4-amino-piperidin-1-yl)-phenyl]-amide] has an IC50 [1] of under 1 µM, an IC50 [2] of under 1 µM and an IC50 [3] of under 1 µM. It also gave an IC50 [4] of under 1000 nM and an IC50 [5] of 1 to 10 µM.
With Nc1ncc(-c2ccoc2)nc1C(=O)Nc1ccccc1N1CCC(N)CC1 [Example 379, 3-amino-6-furan-3-yl-pyrazine-2-carboxylic acid [2-(4-amino-piperidin-1-yl)-phenyl]-amide] the IC50 [1] was under 1 µM, the IC50 [2] was 1 to 10 µM and the IC50 [3] was under 1 µM. It also gave an IC50 [4] of under 1000 nM and an IC50 [5] of 1 to 10 µM.
NC(=O)c1cccc(-c2cnc(N)c(C(=O)Nc3ccccc3N3CCC(N)CC3)n2)c1 [Example 380, 3-amino-6-(3-carbamoyl-phenyl)-pyrazine-2-carboxylic acid [2-(4-amino-piperidin-1-yl)-phenyl]-amide] gave an IC50 [1] of under 1 µM, an IC50 [2] of 1 to 10 µM and an IC50 [3] of under 1 µM. For the same compound, the IC50 [4] was under 1000 nM and the IC50 [5] was under 1 µM.
